Laboratory results as given in article PMC3448056, “2-Benzamido-N-(1H-benzo[d]imidazol-2-yl)thiazole-4-carboxamide derivatives as potent inhibitors of CK1δ/ε” (Amino Acids, 2012).

Tests used:
Experiment in all cases: KINOMEscan selectivity profiling
Assay type in all cases: binding
[1] = biological target: T1, CLK1 (Homo sapiens, UniProt P49759); conditions: remaining relative to controls, read-out: %Ctrl @ 10 μM (CLK1)
T1 construct: purchased Ambit Biosciences Cooperation, San Diego, USA (KINOMEscan)
Method: (§1) KINOMEscan™ was performed to determine binding constants of coumpound 5 to 442 eukaryotic kinases by Ambit Biosciences Cooperation, San Diego, USA.

[2] = biological target: T2, FLT3(D835H) (Homo sapiens, UniProt P36888, D835H); conditions: remaining relative to controls, read-out: %Ctrl @ 10 μM (FLT3(D835H))
T2 construct: purchased Ambit Biosciences Cooperation, San Diego, USA (KINOMEscan)
Method: as §1

[3] = biological target: T3, CLK2 (Homo sapiens, UniProt P49760); conditions: remaining relative to controls, read-out: %Ctrl @ 10 μM (CLK2)
T3 construct: purchased Ambit Biosciences Cooperation, San Diego, USA (KINOMEscan)
Method: as §1

[4] = biological target: T4, DYRK2 (Homo sapiens, UniProt Q92630); conditions: remaining relative to controls, read-out: %Ctrl @ 10 μM (DYRK2)
T4 construct: purchased Ambit Biosciences Cooperation, San Diego, USA (KINOMEscan)
T4 sequence (Q92630 whole entry): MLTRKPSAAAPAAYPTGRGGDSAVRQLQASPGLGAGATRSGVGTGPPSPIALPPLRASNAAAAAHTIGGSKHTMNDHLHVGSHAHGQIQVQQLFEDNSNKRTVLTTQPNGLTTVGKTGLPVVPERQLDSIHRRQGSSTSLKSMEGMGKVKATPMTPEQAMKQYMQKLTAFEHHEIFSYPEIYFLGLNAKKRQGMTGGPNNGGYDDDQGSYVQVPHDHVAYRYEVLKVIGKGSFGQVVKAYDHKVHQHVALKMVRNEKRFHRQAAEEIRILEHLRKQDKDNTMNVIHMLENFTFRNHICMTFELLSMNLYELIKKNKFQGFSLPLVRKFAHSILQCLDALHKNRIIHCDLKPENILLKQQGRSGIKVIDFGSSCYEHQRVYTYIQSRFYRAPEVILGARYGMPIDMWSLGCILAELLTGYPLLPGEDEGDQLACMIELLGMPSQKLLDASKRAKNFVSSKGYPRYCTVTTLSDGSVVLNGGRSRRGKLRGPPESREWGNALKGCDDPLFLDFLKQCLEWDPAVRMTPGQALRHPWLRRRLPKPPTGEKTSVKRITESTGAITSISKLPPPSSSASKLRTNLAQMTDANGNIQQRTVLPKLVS
Method: as §1

[5] = biological target: T5, CSNK1A1L (Homo sapiens, UniProt Q8N752); conditions: remaining relative to controls, read-out: %Ctrl @ 10 μM (CSNK1A1L)
T5 construct: purchased Ambit Biosciences Cooperation, San Diego, USA (KINOMEscan)
T5 sequence (Q8N752 whole entry): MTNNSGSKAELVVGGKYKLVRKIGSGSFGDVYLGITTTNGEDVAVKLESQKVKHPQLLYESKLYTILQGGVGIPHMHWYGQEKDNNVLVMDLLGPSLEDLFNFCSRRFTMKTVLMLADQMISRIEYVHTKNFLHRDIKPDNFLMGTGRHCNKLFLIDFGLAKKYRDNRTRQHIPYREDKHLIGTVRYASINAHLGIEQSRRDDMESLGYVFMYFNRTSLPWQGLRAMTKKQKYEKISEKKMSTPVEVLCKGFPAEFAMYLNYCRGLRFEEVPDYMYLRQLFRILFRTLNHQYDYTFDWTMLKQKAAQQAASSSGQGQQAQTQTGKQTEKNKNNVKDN
Method: as §1

[6] = biological target: T6, DYRK1B (Homo sapiens, UniProt Q9Y463); conditions: remaining relative to controls, read-out: %Ctrl @ 10 μM (DYRK1B)
T6 construct: purchased Ambit Biosciences Cooperation, San Diego, USA (KINOMEscan)
T6 sequence (Q9Y463 whole entry): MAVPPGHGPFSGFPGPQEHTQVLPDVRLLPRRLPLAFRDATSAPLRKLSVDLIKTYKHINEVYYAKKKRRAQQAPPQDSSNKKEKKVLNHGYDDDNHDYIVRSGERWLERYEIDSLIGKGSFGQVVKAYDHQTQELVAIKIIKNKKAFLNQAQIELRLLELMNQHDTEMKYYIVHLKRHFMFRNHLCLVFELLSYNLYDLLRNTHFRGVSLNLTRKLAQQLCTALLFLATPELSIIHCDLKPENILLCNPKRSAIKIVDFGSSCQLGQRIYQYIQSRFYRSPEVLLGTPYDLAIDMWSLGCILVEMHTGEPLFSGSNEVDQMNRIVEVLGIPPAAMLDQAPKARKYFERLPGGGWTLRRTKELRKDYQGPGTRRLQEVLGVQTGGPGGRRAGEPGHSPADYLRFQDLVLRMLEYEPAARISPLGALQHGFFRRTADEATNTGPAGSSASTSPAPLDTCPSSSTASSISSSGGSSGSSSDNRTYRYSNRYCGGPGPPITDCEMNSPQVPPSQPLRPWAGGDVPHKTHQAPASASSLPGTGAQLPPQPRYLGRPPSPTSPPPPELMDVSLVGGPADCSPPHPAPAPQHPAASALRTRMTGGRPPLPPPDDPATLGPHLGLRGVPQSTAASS
Method: as §1

[7] = biological target: T7, CSNK1G3 (Homo sapiens, UniProt Q9Y6M4); conditions: remaining relative to controls, read-out: %Ctrl @ 10 μM (CSNK1G3)
T7 construct: purchased Ambit Biosciences Cooperation, San Diego, USA (KINOMEscan)
T7 sequence (Q9Y6M4 whole entry): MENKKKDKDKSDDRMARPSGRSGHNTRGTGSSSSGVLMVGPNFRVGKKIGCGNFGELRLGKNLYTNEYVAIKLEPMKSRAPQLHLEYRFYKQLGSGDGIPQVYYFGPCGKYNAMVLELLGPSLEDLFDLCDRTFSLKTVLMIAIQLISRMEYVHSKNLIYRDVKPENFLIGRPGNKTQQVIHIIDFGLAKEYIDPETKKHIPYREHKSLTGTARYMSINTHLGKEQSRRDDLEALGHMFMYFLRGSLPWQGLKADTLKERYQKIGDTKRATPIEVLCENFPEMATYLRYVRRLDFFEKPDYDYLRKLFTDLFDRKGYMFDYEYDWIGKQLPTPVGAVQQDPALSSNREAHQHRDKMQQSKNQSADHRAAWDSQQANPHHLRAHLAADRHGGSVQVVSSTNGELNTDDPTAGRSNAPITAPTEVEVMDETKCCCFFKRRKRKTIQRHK
Method: as §1

[8] = biological target: T8, CSNK1A1 (Homo sapiens, UniProt P48729); conditions: remaining relative to controls, read-out: %Ctrl @ 10 μM (CSNK1A1)
T8 construct: purchased Ambit Biosciences Cooperation, San Diego, USA (KINOMEscan)
T8 sequence (P48729 whole entry): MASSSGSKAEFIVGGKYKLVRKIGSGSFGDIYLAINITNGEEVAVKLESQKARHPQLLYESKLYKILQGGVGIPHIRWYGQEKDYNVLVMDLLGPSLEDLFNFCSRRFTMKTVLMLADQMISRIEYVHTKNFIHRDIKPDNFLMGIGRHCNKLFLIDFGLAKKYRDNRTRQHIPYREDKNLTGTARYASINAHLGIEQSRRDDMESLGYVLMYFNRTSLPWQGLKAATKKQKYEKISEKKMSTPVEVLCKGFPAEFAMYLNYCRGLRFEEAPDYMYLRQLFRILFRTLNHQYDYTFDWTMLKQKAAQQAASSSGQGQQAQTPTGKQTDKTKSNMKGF
Method: as §1

[9] = biological target: T9, DYRK1A (Homo sapiens, UniProt Q13627); conditions: remaining relative to controls, read-out: %Ctrl @ 10 μM (DYRK1A)
T9 construct: purchased Ambit Biosciences Cooperation, San Diego, USA (KINOMEscan)
Method: as §1

[10] = biological target: T10, CLK4 (Homo sapiens, UniProt Q9HAZ1); conditions: remaining relative to controls, read-out: %Ctrl @ 10 μM (CLK4)
T10 construct: purchased Ambit Biosciences Cooperation, San Diego, USA (KINOMEscan)
T10 sequence (Q9HAZ1 whole entry): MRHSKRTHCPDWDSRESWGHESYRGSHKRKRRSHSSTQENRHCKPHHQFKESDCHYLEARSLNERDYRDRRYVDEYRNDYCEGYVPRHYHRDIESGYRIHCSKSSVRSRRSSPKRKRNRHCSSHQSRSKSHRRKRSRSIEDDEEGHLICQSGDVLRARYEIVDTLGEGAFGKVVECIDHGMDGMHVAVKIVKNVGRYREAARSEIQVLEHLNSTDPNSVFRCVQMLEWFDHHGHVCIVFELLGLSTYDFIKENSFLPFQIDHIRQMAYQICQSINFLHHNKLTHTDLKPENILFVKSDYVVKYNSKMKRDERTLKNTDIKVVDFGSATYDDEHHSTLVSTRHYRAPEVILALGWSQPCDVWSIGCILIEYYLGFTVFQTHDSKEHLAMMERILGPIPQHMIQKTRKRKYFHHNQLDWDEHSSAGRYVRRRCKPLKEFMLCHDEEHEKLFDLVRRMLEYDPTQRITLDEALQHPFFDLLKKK
Method: as §1

[11] = biological target: T11, TAOK1 (Homo sapiens, UniProt Q7L7X3); conditions: remaining relative to controls, read-out: %Ctrl @ 10 μM (TAOK1)
T11 construct: purchased Ambit Biosciences Cooperation, San Diego, USA (KINOMEscan service)
Method: as §1

[12] = biological target: T12, CLK3 (Homo sapiens, UniProt P49761); conditions: remaining relative to controls, read-out: %Ctrl @ 10 μM (CLK3)
T12 construct: purchased Ambit Biosciences Cooperation, San Diego, USA (KINOMEscan)
T12 sequence (P49761 whole entry): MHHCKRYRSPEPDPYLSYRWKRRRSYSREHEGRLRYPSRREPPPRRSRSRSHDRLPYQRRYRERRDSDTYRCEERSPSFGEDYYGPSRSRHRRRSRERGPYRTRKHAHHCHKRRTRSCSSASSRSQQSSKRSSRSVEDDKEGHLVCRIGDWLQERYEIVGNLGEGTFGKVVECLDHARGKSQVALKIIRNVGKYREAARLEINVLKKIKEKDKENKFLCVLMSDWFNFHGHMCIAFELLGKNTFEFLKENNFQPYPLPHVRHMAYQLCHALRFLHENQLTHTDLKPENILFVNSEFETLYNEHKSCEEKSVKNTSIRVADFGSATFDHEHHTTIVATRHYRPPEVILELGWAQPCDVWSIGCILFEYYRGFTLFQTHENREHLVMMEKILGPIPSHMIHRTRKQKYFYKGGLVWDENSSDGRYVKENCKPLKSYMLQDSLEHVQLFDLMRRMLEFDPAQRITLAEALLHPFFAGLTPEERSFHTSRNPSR
Method: as §1

[13] = biological target: T13, SLK (Homo sapiens, UniProt Q9H2G2); conditions: remaining relative to controls, read-out: %Ctrl @ 10 μM (SLK)
T13 construct: purchased Ambit Biosciences Cooperation, San Diego, USA (KINOMEscan)
T13 sequence (Q9H2G2 whole entry): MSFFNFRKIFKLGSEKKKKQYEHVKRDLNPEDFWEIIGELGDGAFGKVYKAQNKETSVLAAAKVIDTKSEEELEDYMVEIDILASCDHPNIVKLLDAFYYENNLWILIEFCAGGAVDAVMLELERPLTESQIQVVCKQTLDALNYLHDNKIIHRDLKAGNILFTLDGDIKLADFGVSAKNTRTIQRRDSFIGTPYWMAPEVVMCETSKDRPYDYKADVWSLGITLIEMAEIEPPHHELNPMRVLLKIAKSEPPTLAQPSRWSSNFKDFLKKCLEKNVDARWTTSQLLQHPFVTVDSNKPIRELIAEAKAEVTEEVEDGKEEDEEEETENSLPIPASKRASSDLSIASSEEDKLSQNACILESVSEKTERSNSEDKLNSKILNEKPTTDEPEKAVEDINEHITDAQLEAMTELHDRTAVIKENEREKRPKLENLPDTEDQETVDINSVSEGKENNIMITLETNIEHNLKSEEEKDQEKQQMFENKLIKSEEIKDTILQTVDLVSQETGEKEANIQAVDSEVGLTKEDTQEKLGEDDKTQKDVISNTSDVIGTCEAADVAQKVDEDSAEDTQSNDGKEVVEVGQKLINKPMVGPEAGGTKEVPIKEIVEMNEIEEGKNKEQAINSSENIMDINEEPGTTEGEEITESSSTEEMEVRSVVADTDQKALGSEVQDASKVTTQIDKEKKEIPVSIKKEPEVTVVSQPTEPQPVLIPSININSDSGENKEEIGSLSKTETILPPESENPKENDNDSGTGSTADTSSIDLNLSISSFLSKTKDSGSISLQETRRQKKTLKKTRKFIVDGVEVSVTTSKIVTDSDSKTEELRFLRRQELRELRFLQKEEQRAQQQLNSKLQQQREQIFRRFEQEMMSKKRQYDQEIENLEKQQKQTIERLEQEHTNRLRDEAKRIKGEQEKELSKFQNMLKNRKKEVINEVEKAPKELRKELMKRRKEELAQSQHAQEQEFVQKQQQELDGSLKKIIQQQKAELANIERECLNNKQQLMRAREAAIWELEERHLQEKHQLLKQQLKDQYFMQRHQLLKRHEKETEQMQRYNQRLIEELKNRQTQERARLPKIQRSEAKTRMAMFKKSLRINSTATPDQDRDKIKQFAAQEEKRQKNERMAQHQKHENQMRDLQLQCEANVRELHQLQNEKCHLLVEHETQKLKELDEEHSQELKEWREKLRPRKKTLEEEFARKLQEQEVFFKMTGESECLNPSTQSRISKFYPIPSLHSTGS
Method: as §1

[14] = biological target: T14, TAOK3 (Homo sapiens, UniProt Q9H2K8); conditions: remaining relative to controls, read-out: %Ctrl @ 10 μM (TAOK3)
T14 construct: purchased Ambit Biosciences Cooperation, San Diego, USA (KINOMEscan service)
Method: as §1

[15] = biological target: T15, PIP5K2C (Homo sapiens, UniProt Q8TBX8); conditions: remaining relative to controls, read-out: %Ctrl @ 10 μM (PIP5K2C)
T15 construct: purchased Ambit Biosciences Cooperation, San Diego, USA (KINOMEscan)
T15 sequence (Q8TBX8 whole entry): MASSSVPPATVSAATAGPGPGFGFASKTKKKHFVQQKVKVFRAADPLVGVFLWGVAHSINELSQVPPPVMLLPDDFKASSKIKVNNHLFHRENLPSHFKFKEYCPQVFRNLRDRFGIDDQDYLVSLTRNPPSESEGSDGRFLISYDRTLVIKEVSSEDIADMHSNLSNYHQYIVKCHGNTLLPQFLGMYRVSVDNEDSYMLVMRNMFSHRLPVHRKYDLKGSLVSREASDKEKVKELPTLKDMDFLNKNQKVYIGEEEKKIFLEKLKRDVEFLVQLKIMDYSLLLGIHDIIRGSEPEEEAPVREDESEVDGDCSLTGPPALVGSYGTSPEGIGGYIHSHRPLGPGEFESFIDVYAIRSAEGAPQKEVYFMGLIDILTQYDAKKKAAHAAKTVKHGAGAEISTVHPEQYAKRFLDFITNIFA
Method: as §1

O=C(Nc1nc2ccc(C(F)(F)F)cc2[nH]1)c1csc(NC(=O)c2ccccc2OC(F)(F)F)n1 [Compound 5, 2-(2-(Trifluoromethoxy)benzamido)-N-(6-(trifluoromethyl)-1H-benzo[d]imidazol-2-yl)thiazole-4-carboxamide]
remaining binding at 10 µM [1]: 2.6%
remaining binding at 10 µM [2]: 25%
remaining binding at 10 µM [3]: 10%
remaining binding at 10 µM [4]: 17%
remaining binding at 10 µM [5]: 1%
remaining binding at 10 µM [6]: 6.6%
remaining binding at 10 µM [7]: 31%
remaining binding at 10 µM [8]: 3%
remaining binding at 10 µM [9]: 4.1%
remaining binding at 10 µM [10]: 7.2%
remaining binding at 10 µM [11]: 24%
remaining binding at 10 µM [12]: 20%
remaining binding at 10 µM [13]: 12%
remaining binding at 10 µM [14]: 20%
remaining binding at 10 µM [15]: 9.6%
